The results in this text go back to patent US10294202B2, “Pyrrolidinones as herbicides” (FMC Corporation, priority 2013, dated 2019).

SMILES strings stand for the structures.

The subject of one assay is pigweed. The experiment in a line: Test D pre-/postemergence herbicide test. The format is in vivo, Amaranthus retroflexus. The conditions noted are these: for Plant response rating: Postemergence, Pigweed, scale 0 to 100; for Plant response rating, Pigweed: Preemergence, scale 0 to 100 (0 no effect, 100 complete control). The method in brief: (§1)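 Dual-timing greenhouse test: preemergence application to seeds in silt loam soil, postemergence application to 1- to 4-leaf plants in peat-based medium. Chemicals were formulated with surfactant in non-phytotoxic solvent. Control was rated visually 0–100 relative to untreated plants after 7 to 21 days.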

The next assay has as its system Russian thistle. The assay is described as follows: Test D pre-/postemergence herbicide test. The format is in vivo, Salsola kali. Conditions: Postemergence, Russian Thistle, scale 0 to 100. The gist of the method: as §1
For another assay, the system named is crabgrass, large. The assay is described as follows: Test E preemergence herbicide test. The format is in vivo, Digitaria sanguinalis. Also on record: key: 0 = no effect, 100 = complete control. The gist of the method:
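Response is a 0–100 visual rating against controls (100 = complete control), taken 21 days after preemergence treatment of seeded silt loam soil held in a greenhouse.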

The subject of the next assay is arrowleaf sida. The assay is described as follows: Test E preemergence herbicide test. The format is in vivo, Sida rhombifolia. Also on record: key: 0 = no effect, 100 = complete control. The text has this:
Seeds of plant species selected from corn (Zea mays), soybean (Glycine max), velvetleaf (Abutilon theophrasti), lambsquarters (Chenopodium album), wild poinsettia (Euphorbia heterophylla), pigweed, palmer (palmer pigweed, Amaranthus palmeri), waterhemp (common waterhemp, Amaranthus rudis), surinam grass (Brachiaria decumbens), crabgrass, large (large crabgrass, Digitaria sanguinalis), crabgrass, Brazil (Brazilian crabgrass, Digitaria horizontalis), panicum, fall (fall panicum, Panicum dichotomiflorum), foxtail, giant (giant foxtail, Setaria faberii), foxtail, green (green foxtail, Setaria viridis), goosegrass (Eleusine indica), johnsongrass (Sorghum halepense), ragweed (common ragweed, Ambrosia elatior), barnyardgrass (Echinochloa crus-galli), sandbur (southern sandbur, Cenchrus echinatus), arrowleaf […] rhombifolia), ryegrass, Italian (Italian ryegrass, Lolium multiflorum), dayflower, VA (Virginia dayflower, Commelina virginica), field bindweed (Convolvulus arvensis), morningglory (Ipomoea coccinea), nightshade (eastern black nightshade, Solanum ptycanthum), kochia (Kochia scoparia), nutsedge, yellow (yellow nutsedge, Cyperus esculentus), cocklebur (common cocklebur, Xanthium strumarium), smartweed (ladysthumb smartweed, Polygonum Persicaria) and beggarticks (hairy beggarticks, Bidens pilosa), were planted into a silt loam soil and treated preemergence with test chemicals formulated in a non-phytotoxic solvent mixture which included a surfactant. Treated plants and controls were maintained in a greenhouse for 21 days, after which time all species were compared to controls and visually evaluated. Plant response ratings, summarized in Table E, are based on a scale of 0 to 100 where 0 is no effect and 100 is complete control. A dash (-) response means no test result.

The subject of another assay is barnyardgrass. The experiment in a line: Test F flood (paddy) test. The conditions noted are these: 21 d, scale 0-100. The format is in vivo, Echinochloa crus-galli. The method in brief: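 Visual injury ratings (0 no effect to 100 complete control) were taken 21 d after treatment against untreated controls. Compounds went directly into paddy water held 3 cm above soil, applied at the 2.0–2.5-leaf stage in sterilized Tama silt loam under a 30/27 °C, 16-h greenhouse regime.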

Turning to `O=C1NCC(c2ccc(F)c(F)c2)C1C(=O)Nc1cccc(F)c1F` (centres unmarked) [Compound 17, N-(2,3-difluorophenyl)-4-(3,4-difluorophenyl)-2-oxo-3-pyrrolidinecarboxamide], the Plant response rating in the assay on pigweed (16 g ai/ha) amounted to 0; with pigweed (31 g ai/ha), 0; with pigweed (62 g ai/ha) it was 40; in the assay on pigweed (125 g ai/ha) it was 50; in the assay on pigweed (250 g ai/ha) it was 50; in the assay on Russian thistle (16 g ai/ha), 0. The Plant response rating in the assay with Russian thistle (31 g ai/ha) came out at 0; in the assay on Russian thistle (62 g ai/ha), 0; in the assay on Russian thistle (125 g ai/ha) it was 20; with Russian thistle (250 g ai/ha) it was 40. The “Plant response rating, Crabgrass, Large” value stood at 15 in the assay on crabgrass, large (16 g ai/ha); 20 with crabgrass, large (31 g ai/ha); 70 in the assay on crabgrass, large (62 g ai/ha); 75 in the assay with crabgrass, large (125 g ai/ha); 95 in the assay with crabgrass, large (250 g ai/ha). The “Plant response rating, Arrowleaf Sida” value in the assay on arrowleaf sida (16 g ai/ha), with arrowleaf sida (31 g ai/ha), in the assay with arrowleaf sida (62 g ai/ha), in the assay with arrowleaf sida (125 g ai/ha) and with arrowleaf sida (250 g ai/ha) was 0 each time. Further, the “Plant response rating, Barnyardgrass” value with barnyardgrass (125 g ai/ha) is given as 90; in the assay with barnyardgrass (250 g ai/ha) it was 90; in the assay on barnyardgrass (500 g ai/ha) it was 90; with barnyardgrass (1000 g ai/ha), 95; in the assay with barnyardgrass (2000 g ai/ha) it was 100.
As to `O=C1NC[C@H](c2cccc(C(F)(F)F)c2)[C@H]1C(=O)Nc1ccccc1F` [Compound 204, (3R,4S)—N-(2-fluorophenyl)-2-oxo-4-[3-(trifluoromethyl)phenyl]-3-pyrrolidinecarboxamide], the “Plant response rating, Pigweed” value is recorded as 5 with pigweed (62 g ai/ha), 35 in the assay with pigweed (125 g ai/ha), 0 with pigweed (31 g ai/ha) and 35 with pigweed (250 g ai/ha). Besides, the “Plant response rating, Crabgrass, Large” value in the assay with crabgrass, large (31 g ai/ha) is 95; in the assay on crabgrass, large (62 g ai/ha) it was 98; in the assay with crabgrass, large (125 g ai/ha), 98; in the assay with crabgrass, large (250 g ai/ha), 98. Moreover, the “Plant response rating, Arrowleaf Sida” value in the assay on arrowleaf sida (31 g ai/ha), in the assay with arrowleaf sida (62 g ai/ha), with arrowleaf sida (125 g ai/ha) and in the assay on arrowleaf sida (250 g ai/ha) was 0 each time. Moreover, the “Plant response rating, Barnyardgrass” value in the assay on barnyardgrass (125 g ai/ha), in the assay on barnyardgrass (250 g ai/ha) and with barnyardgrass (500 g ai/ha) was 100 throughout.
For `O=C1NC[C@H](c2cccc(C(F)(F)F)c2)[C@H]1C(=O)Nc1cccc(F)c1F` [Compound 206], the “Plant response rating, Pigweed” value came out at 20 with pigweed (62 g ai/ha), 40 with pigweed (125 g ai/ha), 5 with pigweed (31 g ai/ha) and 50 in the assay on pigweed (250 g ai/ha). In addition, the “Plant response rating, Crabgrass, Large” value in the assay with crabgrass, large (31 g ai/ha) was 98; in the assay with crabgrass, large (62 g ai/ha), 98; with crabgrass, large (125 g ai/ha), 98; with crabgrass, large (250 g ai/ha) it was 100. Further, the “Plant response rating, Arrowleaf Sida” value in the assay with arrowleaf sida (31 g ai/ha) came to 0; with arrowleaf sida (62 g ai/ha), 0; with arrowleaf sida (125 g ai/ha), 10; in the assay on arrowleaf sida (250 g ai/ha), 50. For the same molecule, the “Plant response rating, Barnyardgrass” value in the assay with barnyardgrass (64 g ai/ha) stood at 90; in the assay on barnyardgrass (125 g ai/ha), 100; with barnyardgrass (250 g ai/ha) it was 100; with barnyardgrass (500 g ai/ha), 100.
